From patent US12065399B2, “Arylsulfonamide derivatives” (Hoffmann-La Roche Inc., priority 2019, dated 2024)
Counter-ions that a name gives are not always drawn.

Target: human mGlu4 receptor (Homo sapiens (Human), UniProt Q14833)
Test: Intracellular Ca2+ mobilization assay (FLIPR), mGlu4 NAM
Assay type: cell-based
Details: HEK-293 cells stably transfected with human mGlu4; inhibition of L-AP4 (EC80) response; IC50
Experimental: 2.1) Intracellular Ca^2+ Mobilization Assay (FLIPR)
A monoclonal HEK-293 cell line stably transfected with a cDNA encoding for the human mGlu4 receptor was generated. Cells were cultured according to standard protocols (Freshney, 2000) in Dulbecco's Modified Eagle Medium with high glucose supplemented with 1 mM glutamine, 10% (vol/vol) heat-inactivated bovine calf serum, penicillin/streptomycin, 50 μg/ml hygromycin and 15 μg/ml blasticidin (all cell culture reagents and antibiotics from Invitrogen, Basel, Switzerland).
About 24 hrs before an experiment, 5×10^4 cells/well were seeded in poly-D-lysine coated, black/clear-bottomed 96-well plates. The cells were loaded with 2.5 μM Fluo-4AM in loading buffer (1×HBSS, 20 mM HEPES) for 1 hr at 37° C. and washed five times with loading buffer. The cells were transferred into a Functional Drug Screening System 7000 (Hamamatsu, Paris, France), and 11 half logarithmic serial dilutions of test compound at 37° C. were added and the cells were incubated for 10-30 min. with on-line recording of fluorescence. Following this pre-incubation step, the agonist (2S)-2-amino-4-phosphonobutanoic acid (L-AP4) was added to the cells at a concentration corresponding to EC80 with on-line recording of fluorescence; in order to account for day-to-day variations in the responsiveness of cells, the EC80 of L-AP4 was determined immediately ahead of each experiment by recording of a full dose-response curve of L-AP4.
Responses were measured as peak increase in fluorescence minus basal (i.e. fluorescence without addition of L-AP4), normalized to the maximal stimulatory effect obtained with saturating concentrations of L-AP4. Graphs were plotted with the % maximal stimulatory using XLfit, a curve fitting program that iteratively plots the data using Levenburg Marquardt algorithm. The single site competition analysis equation used was y=A+((B-A)/(1+((x/C)D))), where y is the % maximal stimulatory effect, A is the minimum y, B is the maximum y, C is the IC50, x is the log 10 of the concentration of the competing compound and D is the slope of the curve (the Hill Coefficient). From these curves the IC50 (drug concentration at which 50% of the receptor activation achieved from the addition of L-AP4 in the experiment was inhibited), the Hill coefficient as well as the maximal response in % of the maximal stimulatory effect obtained with saturating concentrations of L-AP4 were calculated (see FIG. 1).

human mGlu4 receptor, sequence (Q14833 33-912): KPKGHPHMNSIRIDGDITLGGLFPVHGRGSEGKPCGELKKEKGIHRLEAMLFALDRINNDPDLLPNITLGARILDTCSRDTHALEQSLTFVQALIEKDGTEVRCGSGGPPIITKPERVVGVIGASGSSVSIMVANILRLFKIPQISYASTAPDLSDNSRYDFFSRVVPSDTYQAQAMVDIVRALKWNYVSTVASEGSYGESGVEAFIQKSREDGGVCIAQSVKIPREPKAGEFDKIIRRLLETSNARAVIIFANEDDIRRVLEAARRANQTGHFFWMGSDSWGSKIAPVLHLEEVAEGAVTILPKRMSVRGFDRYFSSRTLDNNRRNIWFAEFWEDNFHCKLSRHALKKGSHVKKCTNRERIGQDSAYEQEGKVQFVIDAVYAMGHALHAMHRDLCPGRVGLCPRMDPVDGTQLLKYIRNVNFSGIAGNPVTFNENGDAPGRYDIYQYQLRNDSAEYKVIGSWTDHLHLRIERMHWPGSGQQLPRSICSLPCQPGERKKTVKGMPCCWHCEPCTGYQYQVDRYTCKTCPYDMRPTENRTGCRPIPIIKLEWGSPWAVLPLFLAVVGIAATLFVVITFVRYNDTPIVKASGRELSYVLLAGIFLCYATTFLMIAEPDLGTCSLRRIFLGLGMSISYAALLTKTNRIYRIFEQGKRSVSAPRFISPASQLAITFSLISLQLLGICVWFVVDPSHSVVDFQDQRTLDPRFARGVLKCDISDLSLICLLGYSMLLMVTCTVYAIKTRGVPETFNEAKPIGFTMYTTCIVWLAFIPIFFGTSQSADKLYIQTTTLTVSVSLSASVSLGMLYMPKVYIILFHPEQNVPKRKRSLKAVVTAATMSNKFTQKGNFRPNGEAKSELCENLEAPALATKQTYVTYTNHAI

Row | Compound | EC50 [µM]
1 | Cc1c(C(F)(F)F)cccc1S(=O)(=O)Nc1c(F)cc(C#Cc2ccccc2)cc1F [Example 28, N-[2,6-difluoro-4-(2-phenylethynyl)phenyl]-2-methyl-3-(trifluoromethyl)benzenesulfonamide] | 1.95
2 | O=S(=O)(Nc1c(F)cc(C#Cc2ccccc2)cc1F)c1cccc(Cl)c1C(F)(F)F [Example 21, 3-chloro-N-[2,6-difluoro-4-(2-phenylethynyl)phenyl]-2-(trifluoromethyl)benzenesulfonamide] | 15.3
3 | O=S(=O)(Nc1c(F)cc(C#Cc2cncc(F)c2)cc1F)c1ccccc1Cl [Example 12, 2-chloro-N-[2,6-difluoro-4-[2-(5-fluoro-3-pyridyl)ethynyl]phenyl]benzenesulfonamide] | 2.96
4 | Cc1c(F)cccc1S(=O)(=O)Nc1c(F)cc(C#Cc2cncc(F)c2)cc1F [Example 57, N-[2,6-difluoro-4-[2-(5-fluoro-3-pyridyl)ethynyl]phenyl]-3-fluoro-2-methyl-benzenesulfonamide; 2,2,2-trifluoroacetic acid] | 0.575
5 | O=S(=O)(Nc1c(F)cc(C#Cc2ccccc2)cc1F)c1ccc(Cl)cc1Cl [Example 11, 2,4-dichloro-N-[2,6-difluoro-4-(2-phenylethynyl)phenyl]benzenesulfonamide] | 15.7
6 | Cc1cc(F)c(C)c(S(=O)(=O)Nc2c(F)cc(C#Cc3cncc(F)c3)cc2F)c1 [Example 38, N-[2,6-difluoro-4-[2-(5-fluoro-3-pyridyl)ethynyl]phenyl]-3-fluoro-2,5-dimethyl-benzenesulfonamide; 2,2,2-trifluoroacetic acid salt] | 0.434
7 | O=S(=O)(Nc1c(F)cc(C#Cc2ccccc2)cc1F)c1cccc2ncoc12 [Example 34, N-[2,6-difluoro-4-(2-phenylethynyl)phenyl]-1,3-benzoxazole-7-sulfonamide] | 6.56
8 | O=S(=O)(Nc1c(F)cc(C#Cc2ccccc2)cc1F)c1ccccc1F [Example 6, N-[2,6-difluoro-4-(2-phenylethynyl)phenyl]-2-fluoro-benzenesulfonamide] | 4.64
9 | O=S(=O)(Nc1c(F)cc(C#Cc2cncc(F)c2)cc1F)c1cccc(Cl)c1 [Example 14, 3-chloro-N-[2,6-difluoro-4-[2-(5-fluoro-3-pyridyl)ethynyl]phenyl]benzenesulfonamide] | 1.05
10 | COc1cccc(C#Cc2cc(F)c(NS(=O)(=O)c3cc(C)cc(F)c3C)c(F)c2)c1 [Example 47, N-[2,6-difluoro-4-[2-(3-methoxyphenyl)ethynyl]phenyl]-3-fluoro-2,5-dimethyl-benzenesulfonamide] | 1.05
11 | O=S(=O)(Nc1c(F)cc(C#Cc2ccccc2)cc1F)c1cccc(C(F)(F)F)c1Cl [Example 33, 2-chloro-N-[2,6-difluoro-4-(2-phenylethynyl)phenyl]-3-(trifluoromethyl)benzenesulfonamide] | 2.08
12 | COc1c(F)cccc1S(=O)(=O)Nc1c(F)cc(C#Cc2ccccc2)cc1F [Example 46, N-[2,6-difluoro-4-(2-phenylethynyl)phenyl]-3-fluoro-2-methoxy-benzenesulfonamide] | 2.11
13 | Cc1cccc(S(=O)(=O)Nc2c(F)cc(C#Cc3ccccc3)cc2F)c1 [Example 36, N-[2,6-difluoro-4-(2-phenylethynyl)phenyl]-3-methyl-benzenesulfonamide] | 5.02
14 | Cc1cccc(C#Cc2cc(F)c(NS(=O)(=O)c3cc(C)cc(F)c3C)c(F)c2)c1 [Example 51, N-[2,6-difluoro-4-[2-(m-tolyl)ethynyl]phenyl]-3-fluoro-2,5-dimethyl-benzenesulfonamide] | 1.41
15 | O=S(=O)(Nc1c(F)cc(C#Cc2cncc(F)c2)cc1F)c1cccc(Cl)c1Cl [Example 13, 2,3-dichloro-N-[2,6-difluoro-4-[2-(5-fluoro-3-pyridyl)ethynyl]phenyl]benzenesulfonamide] | 0.556
16 | Cc1c(Cl)cccc1S(=O)(=O)Nc1c(F)cc(C#Cc2cccc(F)c2)cc1F [Example 43, 3-chloro-N-[2,6-difluoro-4-[2-(3-fluorophenyl)ethynyl]phenyl]-2-methyl-benzenesulfonamide] | 1.27
17 | Cc1cc(F)c(C)c(S(=O)(=O)Nc2c(F)cc(C#Cc3cccc(F)c3)cc2F)c1 [Example 45, N-[2,6-difluoro-4-[2-(3-fluorophenyl)ethynyl]phenyl]-3-fluoro-2,5-dimethyl-benzenesulfonamide] | 1.32
18 | O=S(=O)(Nc1c(F)cc(C#Cc2ccccc2)cc1F)c1cccc(Cl)c1F [Example 35, 3-chloro-N-[2,6-difluoro-4-(2-phenylethynyl)phenyl]-2-fluoro-benzenesulfonamide] | 1.61
19 | O=S(=O)(Nc1c(F)cc(C#Cc2ccccc2)cc1F)c1cccnc1 [Example 7, N-[2,6-difluoro-4-(2-phenylethynyl)phenyl]pyridine-3-sulfonamide] | 4.67
20 | O=S(=O)(Nc1c(F)cc(C#Cc2ccccc2)cc1F)c1cc(Cl)ccc1Cl [Example 4, 2,5-dichloro-N-[2,6-difluoro-4-(2-phenylethynyl)phenyl]benzenesulfonamide] | 3.43
21 | Cc1cc(F)c(C)c(S(=O)(=O)Nc2c(F)cc(C#Cc3cccnc3)cc2F)c1 [Example 50, N-[2,6-difluoro-4-[2-(3-pyridyl)ethynyl]phenyl]-3-fluoro-2,5-dimethyl-benzenesulfonamide] | 0.274
22 | Cc1c(Cl)cccc1S(=O)(=O)Nc1c(F)cc(C#Cc2cncc(Cl)c2)cc1F [Example 55, 3-chloro-N-(4-((5-chloropyridin-3-yl)ethynyl)-2,6-difluorophenyl)-2-methylbenzenesulfonamide] | 1.92
23 | Cc1cc(F)c(C)c(S(=O)(=O)Nc2c(F)cc(C#Cc3cc(F)cc(F)c3)cc2F)c1 [Example 49, N-[4-[2-(3,5-difluorophenyl)ethynyl]-2,6-difluoro-phenyl]-3-fluoro-2,5-dimethyl-benzenesulfonamide] | 0.902
24 | Cc1c(Cl)cc(F)cc1S(=O)(=O)Nc1c(F)cc(C#Cc2cncc(F)c2)cc1F [Example 53, 3-chloro-N-[2,6-difluoro-4-[2-(5-fluoro-3-pyridyl)ethynyl]phenyl]-5-fluoro-2-methyl-benzenesulfonamide] | 0.523
